Experimental findings from ChEMBL document CHEMBL4665764, “Synthesis and Biological Evaluation of Celastrol Derivatives as Potential Immunosuppressive Agents” (J Nat Prod, 2020) are described below.

Series [1] can be described thus: Antiproliferative activity against Con A-induced BALB/c mouse T cell after 48 hrs by CCK8 assay. In kind it is functional, tissue-based, T cell line.
Series [2] is described as follows: Induction of apoptosis in Con A-induced BALB/c mouse T cell assessed as late apoptotic cells at 1 uM after 48 hrs by Annexin V-FITC/propidium iodide staining based FACS assay (reference value: 7.3%). In kind it is functional, T cell line.
Series [3] has as its system T cell line. The series is described as follows: Induction of mitochondrial membrane disruption in BALB/c mouse T cell assessed as increase in cytochrome c release from mitochondria to cytosol at >=1 uM by Western blot analysis. It is filed as functional. The conditions noted are these: dose microM >=1. (In general: In western blotting, separated proteins are transferred to a membrane and probed.)

Series [4] in a line: Induction of apoptosis in Con A-induced BALB/c mouse T cell assessed as necrotic cells at 0.01 uM after 48 hrs by Annexin V-FITC/propidium iodide staining based FACS assay (reference value: 2.9%). In kind it is functional, T cell line. In general terms: In flow cytometry, cells or beads pass a laser one at a time.
The nature of series [5]: Induction of apoptosis in Con A-induced BALB/c mouse T cell assessed as viable cells at 1 uM after 48 hrs by Annexin V-FITC/propidium iodide staining based FACS assay (reference value: 63.3%). In kind it is functional, T cell line.
Series [6] can be described thus: Anti-inflammatory activity in BALB/c mouse T cell assessed as assessed as IL-2 level at 0.01 uM after 48 hrs by ELISA (reference value: 152.9 +/- 8.7 pg/ml). It is filed as functional, T cell line. Background: An ELISA detects its analyte on a solid surface through an enzyme-linked reagent.
The nature of series [7]: Anti-inflammatory activity in BALB/c mouse T cell assessed as assessed as IL-2 level at 1 uM after 48 hrs by ELISA (reference value: 152.9 +/- 8.7 pg/ml). It is filed as functional, T cell line.
For series [8], the target named is Proto-oncogene tyrosine-protein kinase LCK (Mus musculus) (UniProt P06240). The series is described as follows: Inhibition of LCK phosphorylation in Con-A induced BALB/c mouse T cell by Western blot analysis. In kind it is tissue-based. The conditions noted are these: T cell line.
Series [9] can be described thus: Induction of apoptosis in Con A-induced BALB/c mouse T cell assessed as late apoptotic cells at 0.1 uM after 48 hrs by Annexin V-FITC/propidium iodide staining based FACS assay (reference value: 7.3%). It is filed as functional, T cell line.
A short description of series [10]: Induction of apoptosis in Con A-induced BALB/c mouse T cell assessed as early apoptotic cells at 0.1 uM after 48 hrs by Annexin V-FITC/propidium iodide staining based FACS assay (reference value: 26.5%). It is filed as functional, T cell line.
Series [11] concerns the target T1, Tyrosine-protein kinase ZAP-70 (Mus musculus) (UniProt P43404).
T1 sequence (whole entry): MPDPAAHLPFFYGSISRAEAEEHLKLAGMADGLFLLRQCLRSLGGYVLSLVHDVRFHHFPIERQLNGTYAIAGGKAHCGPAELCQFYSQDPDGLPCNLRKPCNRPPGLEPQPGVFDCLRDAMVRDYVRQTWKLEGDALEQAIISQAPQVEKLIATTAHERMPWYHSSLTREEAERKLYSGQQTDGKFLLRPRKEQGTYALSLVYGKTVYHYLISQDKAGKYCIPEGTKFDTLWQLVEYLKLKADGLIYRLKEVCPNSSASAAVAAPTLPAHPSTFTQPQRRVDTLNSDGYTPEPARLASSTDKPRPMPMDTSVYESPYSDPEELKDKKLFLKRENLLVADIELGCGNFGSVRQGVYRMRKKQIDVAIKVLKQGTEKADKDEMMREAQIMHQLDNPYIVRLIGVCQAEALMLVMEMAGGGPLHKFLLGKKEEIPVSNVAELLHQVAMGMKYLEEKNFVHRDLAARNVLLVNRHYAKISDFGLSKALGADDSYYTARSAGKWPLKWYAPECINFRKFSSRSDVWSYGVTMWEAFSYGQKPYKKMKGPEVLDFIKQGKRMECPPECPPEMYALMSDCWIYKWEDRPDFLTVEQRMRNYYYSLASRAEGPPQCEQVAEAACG
The series is described as follows: Inhibition of ZAP70 phosphorylation in Con-A induced BALB/c mouse T cell by Western blot analysis. The conditions noted are these: T cell line. It is filed as tissue-based.

Series [12] is described as follows: Anti-inflammatory activity in BALB/c mouse T cell assessed as assessed as IL-4 level at 0.1 uM after 48 hrs by ELISA (reference value: 167.8 +/- 9.4 pg/ml). It is filed as functional, T cell line.
Series [13] relates to T cell line. As to the kind of experiment: Induction of apoptosis in BALB/c mouse T cell assessed as increase in Bcl2 at >=1 uM by Western blot analysis. It is filed as functional. The conditions noted are these: dose microM >=1.
Series [14] in a line: Selectivity index, ratio of CC50 for cytotoxicity against BALB/c mouse T cell to IC50 for antiproliferative activity against Con A-induced BALB/c mouse T cell. The arrangement: species or system T cell line.
Series [15] can be described thus: Induction of apoptosis in Con A-induced BALB/c mouse T cell assessed as late apoptotic cells at 0.01 uM after 48 hrs by Annexin V-FITC/propidium iodide staining based FACS assay (reference value: 7.3%). It is filed as functional, T cell line.
The test system of series [16] is T cell line. As to the kind of experiment: Induction of apoptosis in BALB/c mouse T cell assessed as assessed as increase in caspase 3 >=1 uM. In kind it is functional, tissue-based. The conditions noted are these: dose microM >=1.
A short description of series [17]: Anti-inflammatory activity in BALB/c mouse T cell assessed as assessed as TNF-alpha level at 0.01 uM after 48 hrs by ELISA (reference value: 375.8 +/- 19.6 pg/ml). In kind it is functional, T cell line.
The nature of series [18]: Anti-inflammatory activity in BALB/c mouse T cell assessed as assessed as IL-4 level at 1 uM after 48 hrs by ELISA (reference value: 167.8 +/- 9.4 pg/ml). It is filed as functional, T cell line.
A short description of series [19]: Anti-inflammatory activity in BALB/c mouse T cell assessed as assessed as IL-4 level at 0.01 uM after 48 hrs by ELISA (reference value: 167.8 +/- 9.4 pg/ml). In kind it is functional, T cell line.
A short description of series [20]: Induction of apoptosis in Con A-induced BALB/c mouse T cell assessed as viable cells at 0.01 uM after 48 hrs by Annexin V-FITC/propidium iodide staining based FACS assay (reference value: 63.3%). It is filed as functional, T cell line.
The nature of series [21]: Cytotoxicity against BALB/c mouse T cell assessed as reduction in cell viability after 48 hrs by CCK8 assay. It is filed as tissue-based, T cell line. The conditions noted are these: BALB/c mouse T cells.
Series [22] in a line: Anti-inflammatory activity in BALB/c mouse T cell assessed as assessed as TNF-alpha level at 1 uM after 48 hrs by ELISA (reference value: 375.8 +/- 19.6 pg/ml). It is filed as functional, T cell line.
The subject of series [23] is T cell line. The series is described as follows: Induction of apoptosis in BALB/c mouse T cell assessed as increase in Bax at >=1 uM by Western blot analysis. The conditions noted are these: dose microM >=1. It is filed as functional.
Series [24] can be described thus: Induction of apoptosis in Con A-induced BALB/c mouse T cell assessed as necrotic cells at 0.1 uM after 48 hrs by Annexin V-FITC/propidium iodide staining based FACS assay (reference value: 2.9%). It is filed as functional, T cell line.
Series [25] can be described thus: Induction of apoptosis in Con A-induced BALB/c mouse T cell assessed as early apoptotic cells at 0.01 uM after 48 hrs by Annexin V-FITC/propidium iodide staining based FACS assay (reference value: 26.5%). It is filed as functional, T cell line.
Series [26] concerns T cell line. The series is described as follows: Induction of apoptosis in BALB/c mouse T cell assessed as assessed as increase in caspase 9 >=1 uM. It is filed as functional, tissue-based. The conditions noted are these: dose microM >=1.
Series [27] is described as follows: Anti-inflammatory activity in BALB/c mouse T cell assessed as assessed as TNF-alpha level at 0.1 uM after 48 hrs by ELISA (reference value: 375.8 +/- 19.6 pg/ml). It is filed as functional, T cell line.
Series [28] is described as follows: Induction of apoptosis in Con A-induced BALB/c mouse T cell assessed as necrotic cells at 1 uM after 48 hrs by Annexin V-FITC/propidium iodide staining based FACS assay (reference value: 2.9%). In kind it is functional, T cell line.
Series [29] can be described thus: Induction of apoptosis in Con A-induced BALB/c mouse T cell assessed as viable cells at 0.1 uM after 48 hrs by Annexin V-FITC/propidium iodide staining based FACS assay (reference value: 63.3%). In kind it is functional, T cell line.
Series [30] can be described thus: Anti-inflammatory activity in BALB/c mouse T cell assessed as assessed as IL-2 level at 0.1 uM after 48 hrs by ELISA (reference value: 152.9 +/- 8.7 pg/ml). It is filed as functional, T cell line.
Series [31] can be described thus: Induction of apoptosis in Con A-induced BALB/c mouse T cell assessed as early apoptotic cells at 1 uM after 48 hrs by Annexin V-FITC/propidium iodide staining based FACS assay (reference value: 26.5%). It is filed as functional, T cell line.

Each structure is given as a SMILES string. The source made the active and inactive calls. The calls are words filed in the database; no cut-off is given here.

Usually IC50 stands for the midpoint of a concentration-inhibition curve. As usually defined, the CC50 is the concentration giving 50% cytotoxicity.

Proto-oncogene tyrosine-protein kinase LCK (Mus musculus), sequence (P06240 2-509 limits assumed): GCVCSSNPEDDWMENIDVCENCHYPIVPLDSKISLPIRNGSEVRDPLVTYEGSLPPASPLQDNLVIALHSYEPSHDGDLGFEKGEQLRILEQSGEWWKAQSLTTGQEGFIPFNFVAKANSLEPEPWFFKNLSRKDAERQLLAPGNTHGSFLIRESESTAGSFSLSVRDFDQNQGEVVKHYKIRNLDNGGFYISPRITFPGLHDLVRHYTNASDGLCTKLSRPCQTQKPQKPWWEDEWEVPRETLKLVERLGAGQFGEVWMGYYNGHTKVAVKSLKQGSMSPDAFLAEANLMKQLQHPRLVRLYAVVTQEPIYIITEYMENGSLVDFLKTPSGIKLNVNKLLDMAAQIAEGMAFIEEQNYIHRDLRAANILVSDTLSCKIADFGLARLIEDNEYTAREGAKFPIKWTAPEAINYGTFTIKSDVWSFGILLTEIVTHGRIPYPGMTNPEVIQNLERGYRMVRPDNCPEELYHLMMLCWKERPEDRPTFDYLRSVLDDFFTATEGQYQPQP

In series [1], `CNC(=O)[C@]1(C)CC[C@]2(C)CC[C@]3(C)C4=CC=C5C(=CC(=O)C(O)=C5C)[C@]4(C)CC[C@@]3(C)[C@@H]2C1` returned a half-maximal inhibitory concentration (IC50) of 0.025 µM. Moreover, the Activity is 8.5% in series [2]; 1.7% in series [4]; 34.5% in [5]; 128.7 pg/mL in series [6]; 51.1 pg/mL in series [7]; 9.5% in series [9]. Moreover, the Activity was found to be 43.6% in [10]; 78.2 pg/mL in series [12]; 7% in series [15]; 264.5 pg/mL in series [17]; 39.1 pg/mL in series [18]; 135.2 pg/mL in series [19]. The Activity in series [20] stood at 63.4%; in series [22], 142.9 pg/mL; in [24], 0.5%; in [25], 27.9%; in series [27], 204.1 pg/mL; in series [28] it was 1%. Also, the Activity in [29] stood at 46.3%; in series [30] it was 79.1 pg/mL; in series [31], 56%. Also, the result in the series on T cell line [3], in the series with T cell line [13], in the series on T cell line [16], in the series on T cell line [23] and with T cell line [26] was Active. The inhibition result in [8] and in series [11] was “Dose-dependent effect” in each case. Besides, the “Ratio CC50/IC50” value in [14] worked out at 47.7. Further, the CC50 at 48 h in [21] is 1.2 µM.

On to `CCNC(=O)[C@]1(C)CC[C@]2(C)CC[C@]3(C)C4=CC=C5C(=CC(=O)C(O)=C5C)[C@]4(C)CC[C@@]3(C)[C@@H]2C1`, for which the IC50 in series [1] worked out at 0.031 µM. Besides, the “Ratio CC50/IC50” value in [14] is 34.6. Moreover, in series [21], the CC50 at 48 h came to 1.1 µM.

In series [1], `CCCCNC(=O)[C@]1(C)CC[C@]2(C)CC[C@]3(C)C4=CC=C5C(=CC(=O)C(O)=C5C)[C@]4(C)CC[C@@]3(C)[C@@H]2C1` gave an IC50 of 0.063 µM. Further, the “Ratio CC50/IC50” value in series [14] amounted to 19.3. In addition, the CC50 at 48 h in [21] was determined as 1.2 µM.

Turning to `CC1=C(O)C(=O)C=C2C1=CC=C1[C@@]2(C)CC[C@@]2(C)[C@@H]3C[C@](C)(C(=O)OCCC(C)C)CC[C@]3(C)CC[C@]12C`, in series [1], the IC50 stood at 1.09 µM. Further, the “Ratio CC50/IC50” value in [14] is given as 1.4. The cytotoxic concentration (CC50) at 48 h in [21] was 1.5 µM.

`CC1=C(O)C(=O)C=C2C1=CC=C1[C@@]2(C)CC[C@@]2(C)[C@@H]3C[C@](C)(C(=O)NCc4cccc(C)c4)CC[C@]3(C)CC[C@]12C` yielded an IC50 in series [1] of 0.294 µM. The “Ratio CC50/IC50” value in series [14] is 3.4. Moreover, the CC50 at 48 h in series [21] amounted to 1 µM.

As to `C=CCOC(=O)[C@]1(C)CC[C@]2(C)CC[C@]3(C)C4=CC=C5C(=CC(=O)C(O)=C5C)[C@]4(C)CC[C@@]3(C)[C@@H]2C1`, in series [1], the IC50 worked out at 1.18 µM. Further, the “Ratio CC50/IC50” value in series [14] came out at 1.1. Further, in [21], the cytotoxic concentration (CC50) at 48 h was 1.3 µM.
